Assay results reported in ChEMBL document CHEMBL1130574, “5-HT1A and 5-HT2A ligands with anxiolytic and antipanic-like properties” (Bioorg Med Chem Lett, 1997).
The source made the active and inactive calls. The calls are words filed in the database; no cut-off is given here.

Assays:
[1] = biological target: T1, 5-hydroxytryptamine receptor 1A (Rattus norvegicus, UniProt P19327); assay: Binding affinity against 5-hydroxytryptamine 1A receptor of rat hippocampus using [3H]8-OH-DPAT; assay type: tissue-based
T1 sequence (P19327 whole entry): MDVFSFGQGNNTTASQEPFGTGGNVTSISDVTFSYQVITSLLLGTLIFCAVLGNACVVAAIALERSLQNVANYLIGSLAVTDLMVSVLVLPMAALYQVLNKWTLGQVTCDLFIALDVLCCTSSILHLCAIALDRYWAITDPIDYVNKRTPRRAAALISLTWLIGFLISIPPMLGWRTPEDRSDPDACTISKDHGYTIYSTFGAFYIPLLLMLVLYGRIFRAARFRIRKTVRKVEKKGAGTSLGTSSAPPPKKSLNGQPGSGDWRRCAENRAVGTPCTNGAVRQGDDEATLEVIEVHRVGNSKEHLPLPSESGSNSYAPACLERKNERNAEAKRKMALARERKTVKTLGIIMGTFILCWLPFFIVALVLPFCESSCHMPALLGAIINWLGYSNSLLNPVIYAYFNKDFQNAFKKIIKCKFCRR

[2] = biological target: T2, 5-hydroxytryptamine receptor 2C (Rattus norvegicus, UniProt P08909); assay: Binding affinity against 5-hydroxytryptamine 2C receptor in rat choroid plexus using [3H]N-methyl-mesulergine
T2 sequence (P08909 whole entry): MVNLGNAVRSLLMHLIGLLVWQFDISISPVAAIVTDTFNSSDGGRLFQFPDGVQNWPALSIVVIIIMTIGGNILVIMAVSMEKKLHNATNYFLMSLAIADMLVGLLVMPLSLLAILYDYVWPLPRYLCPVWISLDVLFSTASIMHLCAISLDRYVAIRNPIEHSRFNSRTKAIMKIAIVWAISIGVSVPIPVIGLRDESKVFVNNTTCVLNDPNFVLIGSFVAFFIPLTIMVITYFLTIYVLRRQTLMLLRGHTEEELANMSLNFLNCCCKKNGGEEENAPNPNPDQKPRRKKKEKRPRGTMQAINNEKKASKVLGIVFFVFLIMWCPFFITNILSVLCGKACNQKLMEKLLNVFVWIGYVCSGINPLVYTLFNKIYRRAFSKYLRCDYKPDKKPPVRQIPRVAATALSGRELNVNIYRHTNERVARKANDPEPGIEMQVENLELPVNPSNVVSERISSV

[3] = biological target: 5-hydroxytryptamine receptor 2A (Rattus norvegicus, UniProt P14842); assay: Binding affinity for 5-hydroxytryptamine 2A receptor in rat cortex using [3H]ketanserin; assay type: tissue-based
D(2) dopamine receptor = D(2) dopamine receptor (Rattus norvegicus, UniProt P61169); assay: Binding affinity against D2 receptor in rat striatum using [3H]raclopride; assay type: tissue-based
[4] = biological target: T3, Adrenergic receptor alpha-1 (Rattus norvegicus, UniProt P15823+P23944+P43140); assay: Binding affinity against Alpha-1 adrenergic receptor in rat cortex using [3H]prazosin; assay type: tissue-based, Brain
T3 sequence (P15823 whole entry): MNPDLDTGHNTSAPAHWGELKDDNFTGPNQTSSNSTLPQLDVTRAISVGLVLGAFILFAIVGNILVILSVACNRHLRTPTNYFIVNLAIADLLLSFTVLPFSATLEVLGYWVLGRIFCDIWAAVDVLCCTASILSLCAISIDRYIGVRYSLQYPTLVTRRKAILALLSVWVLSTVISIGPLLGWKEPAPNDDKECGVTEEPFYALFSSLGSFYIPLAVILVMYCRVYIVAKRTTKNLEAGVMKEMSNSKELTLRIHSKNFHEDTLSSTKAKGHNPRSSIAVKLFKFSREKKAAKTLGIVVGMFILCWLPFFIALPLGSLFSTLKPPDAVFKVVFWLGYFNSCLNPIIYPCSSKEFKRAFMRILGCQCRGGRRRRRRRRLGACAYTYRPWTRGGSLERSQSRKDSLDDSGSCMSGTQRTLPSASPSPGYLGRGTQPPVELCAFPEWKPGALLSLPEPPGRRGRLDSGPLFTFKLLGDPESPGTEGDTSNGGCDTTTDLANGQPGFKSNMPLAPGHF
T3 sequence (P23944 whole entry): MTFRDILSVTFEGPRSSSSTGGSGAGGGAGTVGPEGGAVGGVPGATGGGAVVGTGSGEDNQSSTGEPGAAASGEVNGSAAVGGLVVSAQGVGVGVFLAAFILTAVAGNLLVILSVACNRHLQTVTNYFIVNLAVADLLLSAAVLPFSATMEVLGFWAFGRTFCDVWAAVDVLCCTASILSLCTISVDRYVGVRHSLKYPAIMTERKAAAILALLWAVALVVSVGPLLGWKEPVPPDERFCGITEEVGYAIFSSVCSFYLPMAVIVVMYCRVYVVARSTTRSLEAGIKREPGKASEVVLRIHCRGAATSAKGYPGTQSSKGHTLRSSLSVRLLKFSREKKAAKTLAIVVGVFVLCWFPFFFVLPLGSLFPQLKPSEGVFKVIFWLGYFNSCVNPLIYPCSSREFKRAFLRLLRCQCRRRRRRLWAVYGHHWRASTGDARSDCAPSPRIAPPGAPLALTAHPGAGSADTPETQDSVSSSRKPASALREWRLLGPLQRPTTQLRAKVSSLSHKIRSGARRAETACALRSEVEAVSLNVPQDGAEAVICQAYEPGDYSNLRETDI
T3 sequence (P43140 whole entry): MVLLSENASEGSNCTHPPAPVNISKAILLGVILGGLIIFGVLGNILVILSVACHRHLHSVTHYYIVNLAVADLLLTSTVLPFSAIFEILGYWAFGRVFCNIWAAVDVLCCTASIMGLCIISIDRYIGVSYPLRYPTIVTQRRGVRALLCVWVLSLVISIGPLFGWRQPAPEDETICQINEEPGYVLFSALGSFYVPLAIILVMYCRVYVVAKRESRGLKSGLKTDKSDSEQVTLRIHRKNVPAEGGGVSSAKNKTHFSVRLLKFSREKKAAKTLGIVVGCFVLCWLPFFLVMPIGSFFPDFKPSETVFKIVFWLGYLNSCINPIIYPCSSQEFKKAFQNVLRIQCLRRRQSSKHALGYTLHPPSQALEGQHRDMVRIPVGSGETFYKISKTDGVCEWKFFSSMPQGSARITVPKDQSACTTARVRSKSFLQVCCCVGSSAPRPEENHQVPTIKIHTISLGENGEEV

Mus musculus [5] = assay: Compound was tested for sedative activity in mice at the dose of 4 mg/kg perorally; active; assay type: functional, organism-based; set-up: dose 4 mg/kg
Mus musculus [6] = assay: 5-HT2 antagonist activity was assessed by the ability of compound to antagonise 5-HTP induced head twitches at 4 mg/Kg administered intraperitoneally in mice; Inactive; assay type: functional, organism-based
Mus musculus [7] = assay: 5-HT2 antagonist activity was assessed by the ability of compound to antagonise mescaline induced scratching at 16 mg/Kg administered intraperitoneally in mice; Inactive; assay type: functional, organism-based
Mus musculus [8] = assay: 5-HT2 antagonist activity was assessed by the ability of compound to antagonise 5-HTP induced head twitches at 128 mg/Kg administered perorally in mice; assay type: functional; settings: po
Mus musculus [9] = assay: 5-HT2 antagonist activity was assessed by the ability of compound to antagonise 5-HTP induced head twitches at 45 mg/Kg administered perorally in mice; assay type: functional; settings: po
Mus musculus [10] = assay: 5-HT2 antagonist activity was assessed by the ability of compound to antagonise mescaline induced scratching at 32 mg/Kg administered perorally in mice; assay type: functional; settings: po
Mus musculus [11] = assay: 5-HT2 antagonist activity was assessed by the ability of compound to antagonise mescaline induced scratching at 8 mg/Kg administered perorally in mice; assay type: functional; settings: po

5-hydroxytryptamine receptor 2A, sequence (P14842 whole entry): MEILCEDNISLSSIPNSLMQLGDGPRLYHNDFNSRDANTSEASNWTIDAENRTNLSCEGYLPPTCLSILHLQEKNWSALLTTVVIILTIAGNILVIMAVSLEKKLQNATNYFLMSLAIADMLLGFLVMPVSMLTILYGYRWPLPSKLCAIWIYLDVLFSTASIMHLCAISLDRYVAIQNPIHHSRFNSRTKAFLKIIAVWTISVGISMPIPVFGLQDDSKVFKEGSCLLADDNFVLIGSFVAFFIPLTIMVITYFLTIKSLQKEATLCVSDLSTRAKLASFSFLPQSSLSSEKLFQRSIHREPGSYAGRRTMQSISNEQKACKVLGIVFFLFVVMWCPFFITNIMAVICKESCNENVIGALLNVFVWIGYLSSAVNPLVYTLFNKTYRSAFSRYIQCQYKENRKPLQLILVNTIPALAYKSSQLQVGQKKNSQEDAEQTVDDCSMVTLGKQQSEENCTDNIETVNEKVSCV
D(2) dopamine receptor, sequence (P61169 whole entry): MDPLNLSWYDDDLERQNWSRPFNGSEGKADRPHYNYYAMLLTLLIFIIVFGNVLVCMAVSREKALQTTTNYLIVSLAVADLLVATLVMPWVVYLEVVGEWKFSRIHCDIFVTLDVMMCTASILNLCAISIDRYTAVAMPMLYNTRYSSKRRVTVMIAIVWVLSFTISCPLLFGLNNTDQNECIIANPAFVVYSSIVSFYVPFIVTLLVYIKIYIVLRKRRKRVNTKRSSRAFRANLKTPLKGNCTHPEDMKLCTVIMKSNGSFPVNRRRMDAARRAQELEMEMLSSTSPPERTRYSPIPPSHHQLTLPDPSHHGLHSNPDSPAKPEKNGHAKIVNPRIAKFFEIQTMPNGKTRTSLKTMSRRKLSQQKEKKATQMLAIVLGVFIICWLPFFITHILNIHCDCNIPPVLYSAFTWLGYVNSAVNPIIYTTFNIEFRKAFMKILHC

| SMILES | Ki [1] [nM] | Ki [2] [nM] | Ki [3] [nM] | Ki (D(2) dopamine receptor) [nM] | Ki [4] [nM] | Activity (Mus musculus [5]) | Activity (Mus musculus [6]) | Activity (Mus musculus [7]) | inhibition in vivo at 128 mg/kg (Mus musculus [8]) [%] | inhibition in vivo at 45 mg/kg (Mus musculus [9]) [%] | inhibition in vivo at 32 mg/kg (Mus musculus [10]) [%] | inhibition in vivo at 8 mg/kg (Mus musculus [11]) [%] |
| --- | --- | --- | --- | --- | --- | --- | --- | --- | --- | --- | --- | --- |
| COc1ccccc1N1CCN(CCc2ccc3c(c2)sc(=O)n3CCN2CCC(C(=O)c3ccc(F)cc3)CC2)CC1 | 6000 | 50 | 20 | 5 | 1 | – | – | – | – | – | – | – |
| COc1ccccc1N1CCN(CCCCc2ccc3c(c2)OCC(=O)N3CCN2CCC(C(=O)c3ccc(F)cc3)CC2)CC1 | 18 | 30 | 14 | 0.06 | 2 | – | – | – | – | – | – | – |
| COc1ccccc1N1CCN(CCCCc2ccc3c(c2)oc(=O)n3CCN2CCC(=C(c3ccc(F)cc3)c3ccc(F)cc3)CC2)CC1 | 98 | 460 | 335 | 3 | 5 | – | – | – | – | – | – | – |
| O=C(c1ccc(F)cc1)C1CCN(CCn2c(=O)sc3cc(CCCCN4CCN(c5cccc(C(F)(F)F)c5)CC4)ccc32)CC1 | 70 | > 10000 | 50 | 30 | 1000 | – | – | – | – | – | – | – |
| O=C(c1ccc(F)cc1)C1CCN(CCn2c(=O)sc3cc(CCCCN4CCOCC4)ccc32)CC1 | 700 | 20 | 0.6 | 100 | 40 | Active | inactive | inactive | – | – | – | – |
| COc1ccccc1N1CCN(CCCCc2ccc3c(c2)OCC(=O)N3CCN2CCC(=C(c3ccc(F)cc3)c3ccc(F)cc3)CC2)CC1 | 49 | 250 | 120 | 1.4 | 13 | – | – | – | – | – | – | – |

Now those with a lower Ki [1], led by results:

| Ki [1] [nM] | Ki [2] [nM] | Ki [3] [nM] | Ki (D(2) dopamine receptor) [nM] | Ki [4] [nM] | SMILES | Activity (Mus musculus [5]) | Activity (Mus musculus [6]) | Activity (Mus musculus [7]) | inhibition in vivo at 128 mg/kg (Mus musculus [8]) [%] | inhibition in vivo at 45 mg/kg (Mus musculus [9]) [%] | inhibition in vivo at 32 mg/kg (Mus musculus [10]) [%] | inhibition in vivo at 8 mg/kg (Mus musculus [11]) [%] |
| --- | --- | --- | --- | --- | --- | --- | --- | --- | --- | --- | --- | --- |
| 3 | 70 | 2 | 2 | – | COc1ccccc1N1CCN(CCCc2ccc3c(c2)sc(=O)n3CCN2CCC(C(=O)c3ccc(F)cc3)CC2)CC1 | – | – | – | – | – | – | – |
| 2 | 75 | 16 | 0.5 | – | COc1ccccc1N1CCN(CCCCc2ccc3c(c2)oc(=O)n3CCN2CCC(C(=O)c3ccc(F)cc3)CC2)CC1 | – | – | – | – | – | – | – |
| 5 | 110 | 7 | 5 | 5 | COc1ccccc1N1CCN(CCCCc2ccc3c(c2)sc(=O)n3CCN2CCC(=C(c3ccc(F)cc3)c3ccc(F)cc3)CC2)CC1 | – | – | – | – | – | – | – |
| 7 | 240 | 2 | 1.2 | 5 | COc1ccccc1N1CCN(CCCCc2ccc3c(c2)sc(=O)n3CCN2CCC(C(=O)c3ccc(F)cc3)CC2)CC1 | – | – | – | 90 | 50 | 70 | 86 |
